Experiments:
human α2B-adrenoceptor [1] = biological target: T1, human α2B-adrenoceptor (Homo sapiens, UniProt P18089); test: Competition binding with 3H-rauwolscine, human alpha-2B; set-up: expressed in transfected cells; host or cells: Shionogi S115 cells (membranes); conditions: Mean ± SEM, n = 3 unless indicated, membranes of Shionogi S115 cells, read-out: Binding affinity Ki alpha-2B
T1 sequence (P18089 1-450): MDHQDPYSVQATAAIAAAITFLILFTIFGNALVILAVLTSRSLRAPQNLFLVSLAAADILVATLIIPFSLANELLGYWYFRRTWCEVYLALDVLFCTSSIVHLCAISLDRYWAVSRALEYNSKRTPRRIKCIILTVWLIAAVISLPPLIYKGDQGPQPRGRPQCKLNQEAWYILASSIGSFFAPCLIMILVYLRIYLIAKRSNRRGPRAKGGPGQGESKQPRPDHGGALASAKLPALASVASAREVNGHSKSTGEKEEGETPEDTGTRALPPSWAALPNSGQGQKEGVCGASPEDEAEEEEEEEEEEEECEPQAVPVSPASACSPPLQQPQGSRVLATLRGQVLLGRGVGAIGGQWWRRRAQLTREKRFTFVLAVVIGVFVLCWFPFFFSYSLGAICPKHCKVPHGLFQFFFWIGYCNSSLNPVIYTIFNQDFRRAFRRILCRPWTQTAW
Experimental: (§1) Binding Affinity Human Alpha-2-adrenoceptor
(§2) The affinity of test compounds for the three human α2-adrenoceptor subtypes (α2A, α2B and α2C) was determined in competition binding assays with ^3H-rauwolscine. The biological material for these experiments consisted of membranes from Shionogi S115 cells stably transfected with either of the three human α2 subtypes (Marjarnaki et al. 1992). Membrane (5-10 μg of total protein per sample) and 1 nM-2 nM ^3H-rauwolscine (specific activity 78 Ci/mrnmol) were incubated in 50 mM KH2PO4, pH 7.5 with 6 concentrations of the compounds. Each concentration was run in duplicate. Nonspecific binding was defined by 100 μM oxymetazoline and corresponded to 5-15% of total binding. After 30 mim at room temperature, incubations were terminated by rapid vacuum filtration through GF/B glass fiber filter and three 5 ml washes with icecold incubation buffer. The filters were then dried, impregnated with scintillate and their radioactivity was measured by scintillation counting. The analysis of the experiments was carried out by nonlineair least square curve fitting. Experimentally determined IC50 values were converted to Ki's by making use of the Cheng-Prusoff equation (Cheng and Prusoff, 1973). Experiments were repeated a minimum of three times.

human α2A-adrenoceptor [2] = biological target: T2, human α2A-adrenoceptor (Homo sapiens, UniProt P08913); test: Competition binding with 3H-rauwolscine, human alpha-2A; set-up: expressed in transfected cells; host or cells: Shionogi S115 cells (membranes); conditions: Mean ± SEM, n = 3 unless indicated, membranes of Shionogi S115 cells, read-out: Binding affinity Ki alpha-2A
T2 sequence (P08913 1-465): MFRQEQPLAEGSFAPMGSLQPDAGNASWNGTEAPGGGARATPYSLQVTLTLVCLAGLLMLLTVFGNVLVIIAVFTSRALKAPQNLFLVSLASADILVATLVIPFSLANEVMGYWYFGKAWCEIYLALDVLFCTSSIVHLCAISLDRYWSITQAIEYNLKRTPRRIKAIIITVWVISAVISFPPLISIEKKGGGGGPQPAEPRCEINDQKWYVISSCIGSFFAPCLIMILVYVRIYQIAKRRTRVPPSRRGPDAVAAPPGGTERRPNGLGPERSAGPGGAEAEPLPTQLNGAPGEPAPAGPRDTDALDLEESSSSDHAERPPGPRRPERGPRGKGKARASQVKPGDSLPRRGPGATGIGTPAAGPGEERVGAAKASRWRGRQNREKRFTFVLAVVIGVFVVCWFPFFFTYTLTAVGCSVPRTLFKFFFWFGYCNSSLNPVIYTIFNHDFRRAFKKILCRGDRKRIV
Experimental: as §1, §2

[3] = biological target: rat neocortical α1-adrenoceptors; test: Competition binding with 3H-prazosin, rat neocortex membranes; conditions: concentrations of up to 30 μM
Experimental: Binding Affinity Rat Cortical α1-adrenoceptor
The affinity for rat neocortical α1-adrenoceptors was determined in competition binding assays with ^3H-prazosin. The biological material for these assays consisted of membranes from rat neocortex. Membrane suspensions (100-200 μg of total protein per sample) and 0.2 nM-0.25 nM of ^3H-prazosin (specific activity 74 Ci/mmol) were incubated with 6 concentrations of compounds in a total volume of 0.25 ml (50 mM Tris pH 7.7 at 25° C). Each concentration was run in duplicate. Nonspecific binding was defined by 10 μM phentolamine methanesulfonate and corresponded to 25-30% of total binding. After 30 min at room temperature, incubations was terminated by rapid filtration through GF/B glass-fiber filter mats and three washes with ice-cold 10 mM Tris (pH 7.7 at 4° C.). After drying, a solid scintillate was melted onto the filter mats, and their radioactivity was measured by scintillation counting.

human α2C-adrenoceptor [4] = biological target: T3, human α2C-adrenoceptor (Homo sapiens, UniProt P18825); test: Competition binding with 3H-rauwolscine, human alpha-2C; set-up: expressed in transfected cells; host or cells: Shionogi S115 cells (membranes); conditions: Mean ± SEM, n = 3 unless indicated, membranes of Shionogi S115 cells, read-out: Binding affinity Ki alpha-2C
T3 sequence (P18825 1-462): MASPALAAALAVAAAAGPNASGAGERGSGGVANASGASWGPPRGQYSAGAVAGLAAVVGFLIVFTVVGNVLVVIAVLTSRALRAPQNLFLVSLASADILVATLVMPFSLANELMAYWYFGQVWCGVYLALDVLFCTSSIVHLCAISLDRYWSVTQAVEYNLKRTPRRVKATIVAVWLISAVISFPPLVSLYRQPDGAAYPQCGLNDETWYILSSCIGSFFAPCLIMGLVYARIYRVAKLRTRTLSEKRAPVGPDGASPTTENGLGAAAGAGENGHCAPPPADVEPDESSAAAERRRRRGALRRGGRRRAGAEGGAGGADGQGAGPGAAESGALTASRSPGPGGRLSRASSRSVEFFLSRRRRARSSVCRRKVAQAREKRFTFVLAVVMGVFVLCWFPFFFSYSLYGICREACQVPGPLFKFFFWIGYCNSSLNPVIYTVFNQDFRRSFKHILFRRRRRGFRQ
Experimental: as §1, §2

human α2C-adrenoceptor [5] = biological target: T3, human α2C-adrenoceptor; test: Inhibition of epinephrine-stimulated 35S-GTPγS binding, human alpha-2C; format: biochemical; conditions: Mean ± SEM, n minimum three; CHO cell membranes; epinephrine 5 μM; incomplete dose-response curves, KB numbers are minimum estimates; read-out: Antagonist effect KB alpha-2C
Experimental: (§3) Antagonist Activity on Human a2-adrenoceptor Subtypes
(§4) Membranes (2-6 μg of protein per samnple) and 12 concentrations of test compound were preincubated for 30 min with a fixed concentration fo epinephrine (5 μM for α2A, 15 μM for α2B, 5 μM for α2C) in 50 mM Tris, 5 mM MgCl2, 150 mM NaCl, 1 mM DTT,
(§5) 1 mM EDTA, 10 μuM GDP, 30 μM ascoerbic acid, pH 7.4 at room temperature. Binding of radiolabel was started by the addition of trace amounts of ^35S-GTPγS (0.08 nM-0.15 nM, specific activity 1250 Ci/mmol) to the incubation mixture. After an additional 60 min at room temperature, the incubation was terminated by rapid vacuum filtration through glass fiber filter. Filters were washed three times with 5 ml icecold wash buffer (20 mM Tris, 5 mM MgCl2, 1 mM EDTA pH 7.4 at room temperature), dried and counted for radioactivity in a scintiallation counter. Analysis of experiments was carried out by nonlinear least square fitting. Experiments were repeated at least three times.

human α2B-adrenoceptor [6] = biological target: T1, human α2B-adrenoceptor; test: Inhibition of epinephrine-stimulated 35S-GTPγS binding, human alpha-2B; format: biochemical; conditions: Mean ± SEM, n minimum three; CHO cell membranes; epinephrine 15 μM; read-out: Antagonist effect KB alpha-2B
Experimental: as §3, §4, §5

human α2A-adrenoceptor [7] = biological target: T2, human α2A-adrenoceptor; test: Inhibition of epinephrine-stimulated 35S-GTPγS binding, human alpha-2A; format: biochemical; conditions: Mean ± SEM, n minimum three; CHO cell membranes; epinephrine 5 μM; incomplete dose-response curves, KB numbers are minimum estimates; read-out: Antagonist effect KB alpha-2A
Experimental: as §3, §4, §5

Row | Structure (SMILES) | Ki (human α2B-adrenoceptor [1]) | Ki (human α2A-adrenoceptor [2]) | IC50 ([3]; read-out: IC50, displacement of 3H-prazosin) | Ki ([3]; read-out: Ki, displacement of 3H-prazosin) | Ki (human α2C-adrenoceptor [4]) | Kb (human α2C-adrenoceptor [5]) | Kb (human α2B-adrenoceptor [6]) | Kb (human α2A-adrenoceptor [7])
1 | Cc1cc(C)nc(NS(=O)(=O)c2ccc(NC(=O)/C=C/c3ccc(F)cc3)cc2)n1 [D] | 530 ± 90 nM | > 30000 nM |  |  | > 30000 nM |  |  | 
2 | Cc1cc(C)nc(NS(=O)(=O)c2ccc(NC(=O)COc3ccccc3)cc2)n1 [E] | 2900 ± 300 nM | > 100000 nM |  |  | > 100000 nM |  |  | 
3 | CCOc1ccc(C(=O)Nc2ccc(S(=O)(=O)Nc3nc(C)cc(C)n3)cc2)cc1 [C] | 1860 nM | > 30000 nM |  |  | > 30000 nM |  |  | 

The remaining molecules from weak to strong by Ki (human α2B-adrenoceptor [1]), led by results:

Row | Ki (human α2B-adrenoceptor [1]) | Ki (human α2A-adrenoceptor [2]) | IC50 ([3]; read-out: IC50, displacement of 3H-prazosin) | Ki ([3]; read-out: Ki, displacement of 3H-prazosin) | Ki (human α2C-adrenoceptor [4]) | Kb (human α2C-adrenoceptor [5]) | Kb (human α2B-adrenoceptor [6]) | Kb (human α2A-adrenoceptor [7]) | Structure (SMILES)
4 | 215 ± 60 nM | > 30000 nM |  |  | > 30000 nM | > 10000 nM | 250 ± 80 nM | > 10000 nM | Cc1cc(C)nc(NS(=O)(=O)c2ccc(NCc3nc4ccccc4n3C)cc2)n1 [B]
5 | 30 ± 4 nM | 4100 ± 200 nM | > 30000 nM | > 30000 nM | > 4700 nM | 2400 ± 900 nM | 73 ± 23 nM | 2400 ± 700 nM | CCn1c(CNc2ccc(S(=O)(=O)Nc3nc(C)cc(C)n3)cc2)nc2ccccc21 [A]
